The values below come from US12508328B2, “Bio-activated reporters to visualize, in real time, specific gene therapy products” (Northwestern University, priority 2019, dated 2025).

A short description of series [1]: Terbium(III) luminescence: determination of q. The class given is physicochemical. The conditions noted are these: for q (H2O): pure water; for τD2O: D2O; for τH2O: H2O. How it is done:
The q number in the absence and presence of CO32− was determined using TbIII analogues (5a′, 5b′, 5c′, and 11′). Given the similarities in chemistry amongst the lanthanides, TbIII luminescence is a convenient and established method for determining the coordination environment in corresponding GdIII chelates. The narrow […] emission at 543 nm and the relatively long lived 0.4 ms excited state lifetime for Tb(H2O)x facilitates accurate assessment of the inner-coordination sphere, differentiating between coordination of OH, OD, NH, and ND oscillators. 38 Luminescent decay curves were fit to the empirically derived Horrock's equation (Eq. 2). It was expected that the ortho position would have the lowest q in the presence of CO32−, creating a “dark” state with the lowest relaxivity.
The number of water molecules directly coordinated to the lanthanide center (q), was determined for each of the TbIII analogues 5a′-c′ (see Table 1), 10a′-d′ (Table 2), and 11′ in MilliQ water and MOPS/carbonate buffer (10 mm MOPS, 24 mm NaHCO3, pH 7.4).
The monoexponential fluorescence decay of an ≈1 mm solution of each complex was determined using a Hitachi F4500 fluorometer (Schaumburg, IL). An excitation wavelength of 308 nm and an emission wavelength of […] were used, and 25 scans were acquired and averaged for each solution. The averaged data was fit with a monoexponential decay function, and the time constant (t) for each solution was determined in triplicate. The fluorescence decay curves of the complexes were measured in both H2O and D2O, and in both buffer and deuterated buffer, obtained by lyophilizing and re-suspending the buffer in D2O three times (FIG. 17A-E). The q values were calculated using the empirically derived Horrock's equation for Tb(III) (Eq. 2): […]

The target of the next series is T1, β-galactosidase (Escherichia coli, UniProt P00722).
T1 construct: purchased Sigma Aldrich
T1 sequence (P00722 2-1024): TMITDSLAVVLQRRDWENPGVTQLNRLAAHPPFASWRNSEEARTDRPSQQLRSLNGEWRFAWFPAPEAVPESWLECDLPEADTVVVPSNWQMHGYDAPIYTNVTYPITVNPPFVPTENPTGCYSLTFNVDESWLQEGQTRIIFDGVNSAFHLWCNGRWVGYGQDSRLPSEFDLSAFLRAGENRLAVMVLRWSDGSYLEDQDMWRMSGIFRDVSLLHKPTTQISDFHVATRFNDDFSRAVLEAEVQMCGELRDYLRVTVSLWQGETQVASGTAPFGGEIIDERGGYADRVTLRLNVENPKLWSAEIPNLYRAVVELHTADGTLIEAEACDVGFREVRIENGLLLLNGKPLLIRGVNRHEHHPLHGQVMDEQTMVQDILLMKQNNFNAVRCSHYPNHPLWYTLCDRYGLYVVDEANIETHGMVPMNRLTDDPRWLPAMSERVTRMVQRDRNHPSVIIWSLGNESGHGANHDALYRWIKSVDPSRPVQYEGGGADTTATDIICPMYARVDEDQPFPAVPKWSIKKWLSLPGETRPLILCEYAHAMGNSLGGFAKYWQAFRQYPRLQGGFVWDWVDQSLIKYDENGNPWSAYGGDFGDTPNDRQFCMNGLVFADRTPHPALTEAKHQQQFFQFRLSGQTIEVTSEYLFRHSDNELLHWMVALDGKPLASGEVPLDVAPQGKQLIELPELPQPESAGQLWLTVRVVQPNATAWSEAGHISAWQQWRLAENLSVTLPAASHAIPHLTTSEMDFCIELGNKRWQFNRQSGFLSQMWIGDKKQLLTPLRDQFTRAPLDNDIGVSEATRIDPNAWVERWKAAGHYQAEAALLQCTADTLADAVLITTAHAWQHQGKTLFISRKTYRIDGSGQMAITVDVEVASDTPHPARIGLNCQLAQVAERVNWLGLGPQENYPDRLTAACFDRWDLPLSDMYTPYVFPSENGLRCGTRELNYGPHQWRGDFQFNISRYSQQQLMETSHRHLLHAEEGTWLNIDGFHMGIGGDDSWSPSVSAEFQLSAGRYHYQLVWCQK
The series is classed as biochemical. The note with it: 25° C., TES buffer, 1 mM MgCl2, 150 mM NaCl; for Kcat: 420 nm; for Km: nitro-phenol absorbance 420 nm. How it is done: Catalytic efficiencies for five substrates, 5a-c, ONPG, and PNPG were evaluated by UV-vis spectroscopy (Table 3). ONPG and PNPG are literature standards that were used to ensure the assay was performed adequately and to serve as benchmarks of activation kinetics in the absence of the GdIII chelate. […] Catalytic efficiency is directly related to the imaging window wherein activation to the r1, on state is competing with clearance.
Enzyme activation kinetics were determined by the method of initial rates for compounds 5a-c via the appearance of the nitrophenol byproduct of activation. The characteristic absorption was monitored at 420 nm. Concentrations of substrate used were 0, 0.05, 0.1, 0.12, 0.15, 0.3, 0.4, 0.5, 0.75, 1, and 2 mM. Each concentration was measured in triplicate and exact concentrations were measured by ICP-MS (see Table 2).

The nature of series [2]: Relaxivity (1.4 T) in MOPS and MOPS/CO3^2−. The class given is physicochemical. The conditions noted are these: intermolecular series 5a-c, 37° C. As to the method: While measurements of q indicate how well an agent can restrict water access to the GdIII center, the most important property for a bio-activated contrast agent is the change in relaxivity upon enzymatic cleavage (r1). To evaluate the signal change in the presence of CO32−, relaxivities of the intermolecular activated agents were measured in two different buffer conditions, the non-coordinating buffer MOPS and MOPS/CO32−.
T1 relaxation times were obtained for 5a-c (FIG. 13), and complexes 10a-d (FIG. 14), and 11 at 37° C. at 60 MHz (1.4 T) on a Bruker mq60 minispec spectrometer (Billerica, MA). Three 1 mM solutions of each complex were prepared in four different buffer conditions 1) 10 mm 3-(N-morpholino)propanesulfonic acid (MOPS), 100 mm NaCl, pH 7.4, 2) 10 mm MOPS, 24 mm NaHCO3, 100 mm NaCl, pH 7.4, 3) Dulbecco's Phosphate Buffer (DPBS) pH 7.3 Life Technologies, and 4) b-galactosidase enzyme assay buffer, 200 mm sodium phosphate, 100 mm bmercaptoethanol, 2 mm MgCl2, pH 7.3 (FIG. 15). Three sets of five serial dilutions (about 1 mm, 0.5 mm, 0.25 mm, 0.125 mm and 0.0625 mm) were prepared for each complex. T1 relaxation rates were measured using an inversion recovery pule sequence (t1_ir_mb) with a 10 ms first pulse separation, recycle delay and final pulse separation ≥5 T1. T1 relaxation rates were plotted as a function of GdIII concentrations as determined by ICP-MS, r1/r2 was obtained from linear fit of concentration vs. T1 as described in Equation (1).

[3] abbreviates: 10a′-d′, Horrock's equation, MOPS/CO3^2− buffer pH 7.4.
The mark [4] stands for this setting: 10a′-d′, MOPS/CO3^2− buffer pH 7.4.
[5] abbreviates: 10a′-d′, deuterated MOPS/CO3^2− buffer pH 7.4.
Setting [6] is: Tb(III) analogues 10a′-d′, emission 543 nm.
[7] abbreviates: Horrock's equation for TbIII, MOPS/CO32- buffer pH 7.4.
Setting [8] is: Tb(III) analogues, emission 543 nm, ambient temperature.
[9] abbreviates: deuterated MOPS/CO32- buffer pH 7.4.

Take `CCOC(=O)CCCCCNc1cc(COC(=O)NCCN2CCN(CC(=O)[O-])CCN(CC(=O)[O-])CCN(CC(=O)[O-])CC2)ccc1O[C@@H]1O[C@H](CO)[C@H](O)[C@H](O)[C@H]1O.[Tb+3]` [10c′, Terbium(III)-1-(4-(2-(1-(4,7,10-triscarboxymethyl-(1,4,7,10tetraazacyclododecyl)))ethylcarbamoyloxymethyl)-2-((6-ethoxy-6-oxohexyl)amino)phenyl)-β-D-galactopyranose]: in series [1] (setting [3]), the “q (buffer)” value is 0.1. The “q (H2O)” value in series [1] (10a′-d′, Horrock's equation) is reported as 0.1. Further, the τHbuf in series [1] (setting [4]) is listed as 1.9(3) ms. The τDbuf in series [1] (setting [5]) is given as 2.2(6) ms. Moreover, the τD2O in series [1] (Tb(III) analogues 10a′-d′) is recorded as 2.2(9) ms. Also, the τH2O in series [1] (setting [6]) is 1.8(9) ms.
Turning to `CCOC(=O)CCCNc1cc(COC(=O)NCCN2CCN(CC(=O)[O-])CCN(CC(=O)[O-])CCN(CC(=O)[O-])CC2)ccc1O[C@@H]1O[C@H](CO)[C@H](O)[C@H](O)[C@H]1O.[Tb+3]` [10b′, Terbium(III)-1-(4-(2-(1-(4,7,10-triscarboxymethyl-(1,4,7,10tetraazacyclododecyl)))ethylcarbamoyloxymethyl)-2-((4-ethoxy-4-oxobutyl)amino)phenyl)-β-D-galactopyranose], the “q (buffer)” value in series [1] (setting [3]) turned out to be 0. Besides, the “q (H2O)” value in series [1] (10a′-d′, Horrock's equation) is reported as 0.5. Moreover, the τHbuf in series [1] (setting [4]) is on record as 1.8(9) ms. Further, the τDbuf in series [1] (setting [5]) was 1.8(8) ms. In series [1] (Tb(III) analogues 10a′-d′), the τD2O was 2.2(6) ms. For the same compound, in series [1] (setting [6]), the τH2O was 1.6(3) ms.
As for `CCOC(=O)CCCCCCCNc1cc(COC(=O)NCCN2CCN(CC(=O)[O-])CCN(CC(=O)[O-])CCN(CC(=O)[O-])CC2)ccc1O[C@@H]1O[C@H](CO)[C@H](O)[C@H](O)[C@H]1O.[Tb+3]` [10d′, Terbium(III)-1-(4-(2-(1-(4,7,10-triscarboxymethyl-(1,4,7,10tetraazacyclododecyl)))ethylcarbamoyloxymethyl)-2-((8-ethoxy-8-oxooctyl)amino)phenyl)-β-D-galactopyranose], in series [1] (setting [3]), the “q (buffer)” value was found to be 0.1. For the same compound, the “q (H2O)” value in series [1] (10a′-d′, Horrock's equation) is given as 0.1. The τHbuf in series [1] (setting [4]) is listed as 1.9(7) ms. Also, the τDbuf in series [1] (setting [5]) was 2.0(2) ms. In addition, the τD2O in series [1] (Tb(III) analogues 10a′-d′) is 2.2(6) ms. The τH2O in series [1] (setting [6]) was 1.9(3) ms.
For `O=C([O-])CN1CCN(CCNC(=O)OCc2ccc(O[C@@H]3O[C@H](CO)[C@H](O)[C@H](O)[C@H]3O)c([N+](=O)[O-])c2)CCN(CC(=O)[O-])CCN(CC(=O)[O-])CC1.[Tb+3]` [5c′, Terbium(III)-1-(4-(2-(1-(4,7,10-triscarboxymethyl-(1,4,7,10tetraazacyclododecyl)))ethylcarbamoyloxymethyl)-2-nitrophenyl)-β-D-galactopyranose], in series [1] (setting [7]), the “q (buffer)” value was 0. Moreover, the “q (H2O)” value in series [1] (Horrock's equation for TbIII) is 0.7. For the same compound, the τHbuf in series [1] (MOPS/CO32- buffer pH 7.4) is listed as 1.0(2) ms. Moreover, in series [1] (setting [8]), the τD2O is given as 1.1(1) ms and the τH2O is recorded as 0.8(9) ms. For the same compound, the τDbuf in series [1] (setting [9]) is given as 1.0(7) ms.
Broadly, the Km is the substrate concentration at which the rate is half of its maximum. On to `O=C([O-])CN1CCN(CCNC(=O)OCc2ccc(O[C@@H]3O[C@H](CO)[C@H](O)[C@H](O)[C@H]3O)c([N+](=O)[O-])c2)CCN(CC(=O)[O-])CCN(CC(=O)[O-])CC1.[Gd+3]` [5c, Gadolinium(III)-1-(4-(2-(1-(4,7,10-triscarboxymethyl-(1,4,7,10tetraazacyclododecyl)))ethylcarbamoyloxymethyl)-2-nitrophenyl)-β-D-galactopyranose], for which, at β-galactosidase, the Kcat is 765 +/− 37.8 S−1 and the Km came to 129 µM. The “Δr1 relative to the cleaved complex 11 (percent change in relaxivity, dark to bright)” value in series [2] was “negative”.
As to `CCOC(=O)CNc1cc(COC(=O)NCCN2CCN(CC(=O)[O-])CCN(CC(=O)[O-])CCN(CC(=O)[O-])CC2)ccc1O[C@@H]1O[C@H](CO)[C@H](O)[C@H](O)[C@H]1O.[Tb+3]` [10a′, Terbium(III)-1-(4-(2-(1-(4,7,10-triscarboxymethyl-(1,4,7,10tetraazacyclododecyl)))ethylcarbamoyloxymethyl)-2-((2-ethoxy-2-oxoethyl)amino)phenyl)-β-D-galactopyranose], the “q (buffer)” value in series [1] (setting [3]) is on record as 0.3. Also, in series [1] (10a′-d′, Horrock's equation), the “q (H2O)” value amounted to 1.3. Further, in series [1] (setting [4]), the τHbuf is recorded as 1.7(2) ms. Moreover, the τDbuf in series [1] (setting [5]) is 2.1(8) ms. Moreover, the τD2O in series [1] (Tb(III) analogues 10a′-d′) was 2.1(0) ms. Further, the τH2O in series [1] (setting [6]) is listed as 1.1(4) ms.
In the case of `O=C([O-])CN1CCN(CCNC(=O)OCc2cc([N+](=O)[O-])ccc2O[C@@H]2O[C@H](CO)[C@H](O)[C@H](O)[C@H]2O)CCN(CC(=O)[O-])CCN(CC(=O)[O-])CC1.[Gd+3]` [5a, Gadolinium(III)-1-(2-(2-(1-(4,7,10-triscarboxymethyl-(1,4,7,10tetraazacyclododecyl)))ethylcarbamoyloxymethyl)-4-nitrophenyl)-β-D-galactopyranose], on β-galactosidase, the Kcat is reported as 637 +/− 21.9 S−1 and the Km is 272 µM. In addition, the “Δr1 relative to the cleaved complex 11 (percent change in relaxivity, dark to bright)” value in series [2] is “negative”.
Consider `O=C([O-])CN1CCN(CCNC(=O)OCc2cc([N+](=O)[O-])ccc2O[C@@H]2O[C@H](CO)[C@H](O)[C@H](O)[C@H]2O)CCN(CC(=O)[O-])CCN(CC(=O)[O-])CC1.[Tb+3]` [5a′, Terbium(III)-1-(2-(2-(1-(4,7,10-triscarboxymethyl-(1,4,7,10tetraazacyclododecyl)))ethylcarbamoyloxymethyl)-4-nitrophenyl)-β-D-galactopyranose], for which, in series [1] (setting [7]), the “q (buffer)” value is 0.2. In addition, in series [1] (Horrock's equation for TbIII), the “q (H2O)” value turned out to be 1.1. Further, in series [1] (MOPS/CO32- buffer pH 7.4), the τHbuf is given as 1.7(6) ms. In series [1] (setting [8]), the τD2O is reported as 2.2(3) ms and the τH2O was 1.2(8) ms. For the same compound, in series [1] (setting [9]), the τDbuf is recorded as 2.2(0) ms.
On to `O=[N+]([O-])c1ccccc1O[C@@H]1O[C@H](CO)[C@H](O)[C@H](O)[C@H]1O` [ONPG, ortho-nitrophyenyl-[…]-galactoside, reference compound], for which, at β-galactosidase, the Kcat is 600 +/− 29.7 S−1 and the Km worked out at 120 µM.
For the compound `O=[N+]([O-])c1ccc(O[C@@H]2O[C@H](CO)[C@H](O)[C@H](O)[C@H]2O)cc1` [PNPG, para-nitrophyenyl-[…]-galactoside, reference compound], on β-galactosidase, the Kcat was 276 +/− 16.9 S−1 and the Michaelis constant (Km) came to 61 µM.
With `O=C([O-])CN1CCN(CCNC(=O)OCc2ccc([N+](=O)[O-])c(O[C@@H]3O[C@H](CO)[C@H](O)[C@H](O)[C@H]3O)c2)CCN(CC(=O)[O-])CCN(CC(=O)[O-])CC1.[Tb+3]` [5b′, Terbium(III)-1-(5-(2-(1-(4,7,10-triscarboxymethyl-(1,4,7,10tetraazacyclododecyl)))ethylcarbamoyloxymethyl)-2-nitrophenyl)-β-D-galactopyranose], the “q (buffer)” value in series [1] (setting [7]) turned out to be 0. Moreover, in series [1] (Horrock's equation for TbIII), the “q (H2O)” value worked out at 0.4. Besides, the τHbuf in series [1] (MOPS/CO32- buffer pH 7.4) is recorded as 1.4(2) ms. In series [1] (setting [8]), the τD2O is listed as 1.6(6) ms and the τH2O was 1.3(0) ms. Further, the τDbuf in series [1] (setting [9]) is reported as 1.5(4) ms.
